Results from ChEMBL document CHEMBL6127065, “Design and Synthesis of c-Met and HDAC Dual Inhibitors for the Treatment of Breast Cancer” (ACS Med Chem Lett, 2024).
The source made the active and inactive calls. The calls are words filed in the database; no cut-off is given here.

Columns and labels:
MDA-MB-231 [1] = assay: Inhibition of colony formation in human MDA-MB-231 cells at 1 to 25 uM incubated for 7 days by crystal violet staining based analysis; assay type: functional, cell-based; conditions: dose 1-25 µM, time 7.0 day
MDA-MB-231 [2] = assay: Induction of apoptosis in human MDA-MB-231 cells assessed as late apoptotic cells at 5 uM incubated for 48 hrs by AnnexinV-FITC/PI staining based flow cytometry (reference value: 3.77 to 3.84%); assay type: functional
MDA-MB-231 [3] = assay: Induction of apoptosis in human MDA-MB-231 cells assessed as viable cells at 10 uM incubated for 48 hrs by AnnexinV-FITC/PI staining based flow cytometry (reference value: 91.22 to 92.84%); assay type: functional; conditions: read-out: Activity
MDA-MB-231 [4] = assay: Induction of apoptosis in human MDA-MB-231 cells assessed as late apoptotic cells at 10 uM incubated for 48 hrs by AnnexinV-FITC/PI staining based flow cytometry (reference value: 3.77 to 3.84%); assay type: functional
MDA-MB-231 [5] = assay: Induction of apoptosis in human MDA-MB-231 cells assessed as viable cells at 2.5 uM incubated for 48 hrs by AnnexinV-FITC/PI staining based flow cytometry (reference value: 91.22 to 92.84%); assay type: functional; conditions: read-out: Activity
MDA-MB-453 = assay: Antiproliferative activity against human MDA-MB-453 cells assessed as reduction in cell growth incubated for 72 hrs by MTT assay; conditions: MDA-MB-453, 72 h
MDA-MB-231 [6] = assay: Induction of apoptosis in human MDA-MB-231 cells assessed as upregulation of cleaved caspase 8 level at 1 to 25 uM incubated for 48 hrs by western blot analysis; assay type: functional, cell-based; conditions: dose 1-25 µM
MDA-MB-231 [7] = assay: Induction of cell cycle arrest in human MDA-MB-231 cells assessed as accumulation of cells at G2/M phase at 10 uM incubated for 48 hrs by PI staining based flow cytometry (reference value: 29.42 to 32.08%); assay type: functional
MDA-MB-231 [8] = assay: Induction of cell cycle arrest in human MDA-MB-231 cells assessed as accumulation of cells at G0/G1 phase at 1 uM incubated for 48 hrs by PI staining based flow cytometry (reference value: 55.36 to 55.82%); assay type: functional
MDA-MB-231 [9] = assay: Induction of cell cycle arrest in human MDA-MB-231 cells assessed as accumulation of cells at G0/G1 phase at 2.5 uM incubated for 48 hrs by PI staining based flow cytometry (reference value: 55.36 to 55.82%); assay type: functional
MDA-MB-231 [10] = assay: Antiproliferative activity against human MDA-MB-231 cells assessed as reduction in cell growth incubated for 72 hrs by MTT assay; conditions: MDA-MB-231, 72 h

**Q.** For CC(c1ccc2ncccc2c1)n1nnc2ncc(N3CCN(Cc4ccc(/C=C/C(=O)Nc5ccccc5N)cc4)CC3)nc21 (stereo unspecified), which inhibition (MDA-MB-231 [1]) is on record?
**A.** Dose-Dependent Effect

**Q.** And the Activity (MDA-MB-231 [2])?
**A.** 6.84%

**Q.** What about the viability at 10 µM (MDA-MB-231 [3]) of the same molecule?
**A.** 83.1%

**Q.** And the Activity (MDA-MB-231 [4])?
**A.** 10.69%

**Q.** And the viability at 2.5 µM (MDA-MB-231 [5])?
**A.** 84.3%

**Q.** And the IC50 (MDA-MB-453)?
**A.** 5.47 µM

**Q.** And the Activity (MDA-MB-231 [6])?
**A.** Active

**Q.** What about the Activity (MDA-MB-231 [7]) of the same molecule?
**A.** 16.08%

**Q.** What about the Activity (MDA-MB-231 [8]) of the same molecule?
**A.** 65.34%

**Q.** And the Activity (MDA-MB-231 [9])?
**A.** 67.14%

**Q.** What about the IC50 (MDA-MB-231 [10]) of the same molecule?
**A.** 3.57 µM
